Experimental data as given in PubChem BioAssay (NCI).
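Method: 48-hour compound exposure of cells in 96-well plates, five concentrations, linear interpolation of endpoints. TGI: total growth inhibition.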

Tests used:
Assay in all cases: inhibition of tumour cell growth, NCI panel, 48 h
HS 578T breast = tested on: HS 578T breast
MALME-3M melanoma = tested on: MALME-3M melanoma
HCT-15 colon = tested on: HCT-15 colon
UO-31 renal = tested on: UO-31 renal
HOP-92 NSCLC = tested on: HOP-92 NSCLC
SNB-19 CNS = tested on: SNB-19 CNS
EKVX NSCLC = tested on: EKVX NSCLC
MDA-MB-435 = tested on: MDA-MB-435
SF-268 CNS = tested on: SF-268 CNS
NCI-H460 lung = tested on: NCI-H460 lung
HCC-2998 colon = tested on: HCC-2998 colon

SMILES	TGI (HS 578T breast) [µM]	TGI (MALME-3M melanoma) [µM]	TGI (HCT-15 colon) [µM]	TGI (UO-31 renal) [µM]	TGI (HOP-92 NSCLC) [µM]	TGI (SNB-19 CNS) [µM]	TGI (EKVX NSCLC) [µM]	TGI (MDA-MB-435) [µM]	TGI (SF-268 CNS) [µM]	TGI (NCI-H460 lung) [µM]	TGI (HCC-2998 colon) [µM]
Cc1ccc2c3c1O[C@H]1c4nc5ccccc5cc4C[C@@]4(O)[C@@H](C2)N(CC2CC2)CC[C@]314	24.7	28.2	18.2	22.2	58.3	> 100	37.9	23.5	25.6	35.8	–
Clc1ccc(OCc2nnc(CCCCCCCCc3nnc(COc4ccc(Cl)cc4Cl)o3)o2)c(Cl)c1	–	> 100	> 100	> 100	> 100	> 100	> 100	> 100	> 100	> 100	> 100
CCOC(=O)/C=C(/C(=O)OCC)n1cc(C)c(=O)n(Cc2cnnn2CCCCOC(C)=O)c1=O	> 100	–	> 100	36.6	20.2	> 100	49.3	87.2	> 100	71.5	–
CC(=O)C(=C(I)I)c1ccccc1	–	25.6	> 100	33.8	64.5	37.2	49.3	29.9	52.6	> 100	72
Cn1c(N/N=C/c2ccc(Cl)cc2)nc(-c2ccc(Cl)cc2)c(C#N)c1=O	86.4	91.7	> 100	33	57.7	> 100	68.4	> 100	> 100	> 100	–
C=C(Br)CN(C#N)CC(=C)Br	> 100	> 100	> 100	> 100	–	> 100	> 100	> 100	> 100	> 100	> 100
O=C(CCCC(=O)N1CC(CCl)c2ccc([N+](=O)[O-])cc21)N1CC(CCl)c2ccc([N+](=O)[O-])cc21 (configuration not stated)	–	–	> 100	> 100	> 100	> 100	–	> 100	> 100	> 100	> 100
CCCCNC(=S)Nc1nc(C(=O)NNS(=O)(=O)c2ccccc2)cs1	–	> 100	> 100	85.3	> 100	–	> 100	48.4	> 100	–	97.7
CN(C)Cc1cc(C(=O)/C=C/c2ccc(/C=C/C(=O)c3cc(CN(C)C)c(O)c(CN(C)C)c3)cc2)cc(CN(C)C)c1O	> 100	> 100	> 100	> 100	56.4	> 100	> 100	79.7	> 100	–	33.4
CN(C)c1ccc(/C=C2\N=C(c3ccccc3)N(c3nc4c(Cl)cc(Cl)cc4s3)C2=O)cc1	> 100	–	> 100	> 100	> 100	> 100	> 100	67.6	> 100	> 100	> 100
CC(=O)O[C@H]1/C(=C/c2ccc(N(C)C)cc2)C[C@H]2[C@@H]3CC=C4C[C@@H](N5CCCC5)CC[C@]4(C)[C@H]3CC[C@]12C	> 100	> 100	> 100	> 100	> 100	> 100	> 100	–	> 100	> 100	–
COc1ccc(CNc2nc3ccccc3nc2-c2cccs2)cc1	99.8	> 100	> 100	71.1	> 100	–	> 100	> 100	> 100	> 100	> 100
O=S1(=O)c2ccccc2N2CCCc3cc(Cl)cc1c32	84.7	> 100	> 100	> 100	–	> 100	> 100	> 100	> 100	> 100	> 100
O=C1CC(O)c2c(Cl)sc(Cl)c21 (configuration not stated)	–	–	11.3	22.8	7.89	40.2	37.2	> 47.7	17.8	52.3	46.3
Cc1nn(-c2ccccc2)c(C)c1/C=N/NC(=O)c1sc(=S)n(-c2ccccc2)c1N	8.46	> 100	> 100	> 100	–	> 100	8.17	> 100	> 100	16.3	13.5
CC1(C)C2CCC1C(=O)C(C=O)C2 (configuration not stated)	> 100	> 100	> 100	> 100	–	> 100	–	> 100	> 100	> 100	> 100
CCOC(=O)/C(=C\c1ccc(CO)o1)P(=O)(OCC)OCC	> 100	50	33.2	–	53.7	> 100	> 100	86.9	75.8	32.6	> 100
O=C(CSC1=NCCN1)c1ccccc1	> 100	> 100	> 100	> 100	> 100	> 100	> 100	> 100	> 100	> 100	–
O=C(c1ccco1)N(C(=S)N1CCN(c2ccccc2)CC1)c1ccccc1	–	> 100	> 100	> 100	> 100	> 100	–	–	> 100	> 100	–
COc1ccc(CN=CN/C(C#N)=C(\N)C#N)cc1OC	> 100	> 100	> 100	> 100	–	> 100	> 100	> 100	> 100	> 100	> 100
O=C1CC(c2cccc(Cl)c2)n2cccc21 (configuration not stated)	> 100	–	> 100	> 100	> 100	> 100	–	> 100	> 100	–	> 100
Fc1cccc2nc(-c3ccccc3)cc(OCc3ccccc3)c12	> 100	> 100	> 100	> 100	–	> 100	> 100	> 100	> 100	> 100	> 100
